ChEMBL document CHEMBL2321747, “A nonionic inhibitor with high specificity for the UDP-Gal donor binding site of human blood group B galactosyltransferase: design, synthesis, and characterization” (J Med Chem, 2013)
Active and inactive are the calls of the source. No cut-off for these calls is given here.

Columns and labels:
[1] = molecular target: T1, Beta-1,4-galactosyltransferase 1 (Bos taurus) (UniProt P08037); experiment: Binding affinity to bovine beta-1,4-galactosyltransferase 1 using UDP-Gal as substrate at 1.5 mM after 15 hrs by NMR spectroscopic analysis in presence of magnesium ions
T1 sequence (whole entry): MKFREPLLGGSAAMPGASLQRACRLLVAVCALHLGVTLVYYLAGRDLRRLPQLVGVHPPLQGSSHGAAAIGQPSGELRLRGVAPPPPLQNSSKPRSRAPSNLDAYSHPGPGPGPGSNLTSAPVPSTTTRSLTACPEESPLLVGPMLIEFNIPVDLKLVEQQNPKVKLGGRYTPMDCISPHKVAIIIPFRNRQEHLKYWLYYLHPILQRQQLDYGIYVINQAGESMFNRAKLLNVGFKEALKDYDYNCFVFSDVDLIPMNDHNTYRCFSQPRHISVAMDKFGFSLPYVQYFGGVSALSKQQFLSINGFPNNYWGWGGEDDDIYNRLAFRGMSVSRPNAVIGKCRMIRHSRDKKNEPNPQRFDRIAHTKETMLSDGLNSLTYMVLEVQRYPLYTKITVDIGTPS

[2] = molecular target: T2, Histo-blood group ABO system transferase (Homo sapiens, UniProt P16442); experiment: Inhibition of human blood group B Galactosyltransferase using radiolabeled UDP-Gal as substrate in presence of manganese ions
T2 sequence (P16442 whole entry): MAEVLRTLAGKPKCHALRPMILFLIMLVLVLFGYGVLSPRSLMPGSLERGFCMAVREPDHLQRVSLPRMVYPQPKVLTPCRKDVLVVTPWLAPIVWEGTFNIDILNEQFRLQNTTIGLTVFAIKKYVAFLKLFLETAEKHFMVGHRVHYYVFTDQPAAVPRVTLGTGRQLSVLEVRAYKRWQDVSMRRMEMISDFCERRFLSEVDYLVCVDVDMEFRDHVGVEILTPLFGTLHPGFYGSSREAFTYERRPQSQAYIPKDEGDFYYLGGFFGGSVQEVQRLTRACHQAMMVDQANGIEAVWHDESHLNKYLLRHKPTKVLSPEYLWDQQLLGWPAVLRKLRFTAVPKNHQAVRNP

[3] = molecular target: T2, Histo-blood group ABO system transferase; experiment: Binding affinity to human blood group B Galactosyltransferase by STD NMR analysis in presence of magnesium ions
[4] = molecular target: T2, Histo-blood group ABO system transferase; experiment: Inhibition of human blood group B Galactosyltransferase using UDP-Gal as substrate by STD NMR analysis in presence of magnesium ions
[5] = molecular target: T2, Histo-blood group ABO system transferase; experiment: Competitive inhibition of human blood group B Galactosyltransferase using UDP-Gal as substrate by Michaelis-Menten equation analysis in presence of magnesium ions
[6] = molecular target: T2, Histo-blood group ABO system transferase; experiment: Binding affinity to human blood group B Galactosyltransferase after 300 secs by SPR analysis
Homo sapiens = species on record: Homo sapiens; experiment: (§1) Competitive inhibition of human blood group A N-acetylgalactosaminyltransferase using UDP-GalNac as substrate in presence of magnesium ions
[7] = as §1

Row | inhibition [1] | IC50 [2] [µM] | Ki [2] [µM] | Kd [3] [µM] | IC50 [4] [µM] | Ki [4] [µM] | Ki [5] [µM] | Kd [6] [µM] | inhibition (Homo sapiens) | Ki [7] [µM] | Compound
1 | Active | 1600 | 1500 | 182 | 389 | 117 | 565 | 254 | inactive | – | O=c1[nH]c(=O)c2[nH]c(=O)n(C[C@@H](O)[C@H](O)[C@H](O)CO[C@H]3O[C@H](CO)[C@H](O)[C@H](O)[C@H]3O)c2[nH]1
2 | – | – | 2200 | – | – | 571 | – | 2300 | – | 1100 | O=c1[nH]c(=O)c2[nH]c(=O)n(C[C@@H](O)[C@H](O)[C@H](O)CO)c2[nH]1
3 | – | – | 1500 | – | – | 361 | – | – | – | 712 | O=c1[nH]c(=O)c2[nH]c(=O)n(C[C@H](O)[C@H](O)[C@H](O)CO)c2[nH]1
